Source: US20220280647A1, “Hydrophobic Peptide Salts for Extended Release Compositions” (BIOMARIN PHARMACEUTICAL INC., priority 2019, published 2022)
Where no end group is shown, it is not given here.

Legend:
PRKG2 = settings: previous activation data (Campbell 2017; Vaandrager 1997; Pohler 1995); cited from earlier work
[1] = pH 9
Method: To make hydrophobic CNP salts, including CNP variants, CNP-acetate is placed into water or a buffer. In a first experiment, a stock solution comprising CNP at 20 mg/mL in water was prepared. […] Disodium pamoic acid, oleic acid, or sodium docusate were placed in a buffer at a concentration that is in a molar excess to the number of oppositely charged groups on CNP, in this instance a 12 molar excess of counterion to CNP. CNP has 6 positively charged groups at pH 7, and this is a two-fold excess over the number of positively charged groups.

[2] = cited from earlier work
[3] = system: mice deficient in Nf1 in type II collagen producing cells; settings: daily injections; cited from earlier work
[4] = system: mouse model of Cardiofaciocutaneous syndrome using a Braf mutation (p.Q241R); settings: in vivo; cited from earlier work
NPR2 = target: T1, NPR2 (Rattus norvegicus, UniProt P16067); experiment: cGMP stimulation assay (CatchPoint Cyclic-GMP Fluorescent Assay) in NPR2 mutant RCS cells; assay type: cell-based
T1 construct: endogenous in cells; host or cells: RCS (rat chondrosarcoma) cells, wild-type and NPR2+/- clones
T1 sequence (P16067 17-1047): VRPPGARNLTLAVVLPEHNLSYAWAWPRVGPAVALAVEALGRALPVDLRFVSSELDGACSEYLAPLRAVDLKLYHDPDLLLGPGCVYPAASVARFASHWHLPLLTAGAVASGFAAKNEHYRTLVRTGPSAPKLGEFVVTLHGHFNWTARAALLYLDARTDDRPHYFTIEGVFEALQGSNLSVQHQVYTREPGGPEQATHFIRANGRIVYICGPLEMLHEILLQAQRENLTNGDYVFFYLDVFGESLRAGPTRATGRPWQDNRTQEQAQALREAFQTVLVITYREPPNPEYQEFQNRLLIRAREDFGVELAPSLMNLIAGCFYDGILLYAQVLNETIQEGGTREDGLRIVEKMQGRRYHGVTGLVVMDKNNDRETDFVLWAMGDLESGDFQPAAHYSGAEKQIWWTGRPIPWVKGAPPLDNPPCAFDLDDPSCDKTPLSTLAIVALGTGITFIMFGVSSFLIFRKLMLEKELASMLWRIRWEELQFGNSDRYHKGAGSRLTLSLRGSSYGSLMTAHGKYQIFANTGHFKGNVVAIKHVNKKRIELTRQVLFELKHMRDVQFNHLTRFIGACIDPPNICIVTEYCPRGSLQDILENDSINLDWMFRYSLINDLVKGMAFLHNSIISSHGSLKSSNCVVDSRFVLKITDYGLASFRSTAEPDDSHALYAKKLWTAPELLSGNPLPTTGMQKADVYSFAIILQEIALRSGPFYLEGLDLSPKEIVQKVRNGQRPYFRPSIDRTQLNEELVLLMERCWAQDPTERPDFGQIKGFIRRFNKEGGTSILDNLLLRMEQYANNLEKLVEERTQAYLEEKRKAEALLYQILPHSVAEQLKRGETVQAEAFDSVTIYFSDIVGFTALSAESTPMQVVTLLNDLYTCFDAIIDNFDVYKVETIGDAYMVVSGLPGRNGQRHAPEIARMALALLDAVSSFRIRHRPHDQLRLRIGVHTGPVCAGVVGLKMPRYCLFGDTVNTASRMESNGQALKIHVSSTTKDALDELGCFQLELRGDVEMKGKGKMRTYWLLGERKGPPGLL
Method: To determine the effects of CNP on subjects with short stature resulting from NPR2 mutations, cellular models of NPR2 mutations were developed. Exemplary NPR2 mutations analyzed are set out in FIG. 5. Rat chondrosarcoma (RCS) cells having either a knockout of, or heterozygous loss of function mutations in, the NPR2 gene were made by RNP transfection into RCS cells using 125 ng NPR2 variants or wild-type NPR2 plasmid DNA transfected into RCS or HEK293 cells. Single cell clones were seeded and genotyped by Sanger sequencing. Cell models are able to reproduce published cGMP phenotypes of the different mutations.
The NPR2 clones were created by creating insertions and deletions in the first exon of NPR2 in RCS cells. The sequence of the first exon in NPR2 was confirmed by next-generation sequencing and is set out in FIG. 4. NPR2 mutant cells were tested for activity in response to CNP administration by a cGMP stimulation assay using a CatchPoint Cyclic-GMP Fluorescent Assay after treatment with 6 nM of Pro-Gly CNP37. Briefly, NIH3T3 cells (ATCC, CRL-1658) and NPR-transfected HEK293 cells were seeded at 60,000 cells/well in a 96-well plate (96-well black imaging plates, Grenier, #655090). RCS (rat chondrosarcoma) cells were seeded at 40,000 cells/well. Culture media was as follows: NIH3T3 culture media: DMEM high glucose, pyruvate (Thermo, 11995-073)+10% FBS+1× Pen Strep (abbrev P/S, Thermo, cat #15140122). NIH3T3 was the control system for the cGMP assay HEK293 culture media: EMEM+10% FBS+1×P/S+1×GMAX. RCS culture media: DMEM+10% FBS+1× Pen Strep. Serum free NIH3T3 media: DMEM+1×P/S for treatment of cells with IBMX (CAS 28822-58-4); Serum free NIH3T3 media with BSA: DMEM+1×P/S+0.5 mg/mL BSA (Thermo, A9418-100G) for treatment of cells with CNP.
Cells were incubated for 24 hours at 37° C., 5% CO2. For cells to be treated with CNP variants, plates were pre-treated with IBMX (Enzo life sciences, 89161-340, 1 g) 15 minutes prior to use. IBMX is a potent, non-specific inhibitor of phosphodiesterases. An 800 mM stock solution of IBMX is diluted in IBMX dilution media (serum-free media (DMEM+[…] mixed 1:1 with 1×PBS) to a 0.75 mM working stock.
For cell treatment, cells were removed from the incubator, growth media was removed from cells and cells treated with IBMX. 80 μL 0.75 mM IBMX was added to each well and cells returned to 37° C. incubator for 15 minutes. […]
The cGMP assay was carried out using a cGMP calibrator, rabbit anti-cGMP antibody and HRP-cGMP prepared as according to manufacturer's protocol. 40 μL of calibrator was added to wells of an anti-cGMP antibody coated plated, and 40 μL of lysate to be analyzed added to the appropriate wells. […] The plate was read for fluorescence intensity on a Spectramax M, or similar instrument, at excitation 530 nm and emission at 590 nm.

NPR—B = target: T2, NPR—B (Homo sapiens, UniProt P20594); settings: cited from earlier work
T2 sequence (P20594 23-1047): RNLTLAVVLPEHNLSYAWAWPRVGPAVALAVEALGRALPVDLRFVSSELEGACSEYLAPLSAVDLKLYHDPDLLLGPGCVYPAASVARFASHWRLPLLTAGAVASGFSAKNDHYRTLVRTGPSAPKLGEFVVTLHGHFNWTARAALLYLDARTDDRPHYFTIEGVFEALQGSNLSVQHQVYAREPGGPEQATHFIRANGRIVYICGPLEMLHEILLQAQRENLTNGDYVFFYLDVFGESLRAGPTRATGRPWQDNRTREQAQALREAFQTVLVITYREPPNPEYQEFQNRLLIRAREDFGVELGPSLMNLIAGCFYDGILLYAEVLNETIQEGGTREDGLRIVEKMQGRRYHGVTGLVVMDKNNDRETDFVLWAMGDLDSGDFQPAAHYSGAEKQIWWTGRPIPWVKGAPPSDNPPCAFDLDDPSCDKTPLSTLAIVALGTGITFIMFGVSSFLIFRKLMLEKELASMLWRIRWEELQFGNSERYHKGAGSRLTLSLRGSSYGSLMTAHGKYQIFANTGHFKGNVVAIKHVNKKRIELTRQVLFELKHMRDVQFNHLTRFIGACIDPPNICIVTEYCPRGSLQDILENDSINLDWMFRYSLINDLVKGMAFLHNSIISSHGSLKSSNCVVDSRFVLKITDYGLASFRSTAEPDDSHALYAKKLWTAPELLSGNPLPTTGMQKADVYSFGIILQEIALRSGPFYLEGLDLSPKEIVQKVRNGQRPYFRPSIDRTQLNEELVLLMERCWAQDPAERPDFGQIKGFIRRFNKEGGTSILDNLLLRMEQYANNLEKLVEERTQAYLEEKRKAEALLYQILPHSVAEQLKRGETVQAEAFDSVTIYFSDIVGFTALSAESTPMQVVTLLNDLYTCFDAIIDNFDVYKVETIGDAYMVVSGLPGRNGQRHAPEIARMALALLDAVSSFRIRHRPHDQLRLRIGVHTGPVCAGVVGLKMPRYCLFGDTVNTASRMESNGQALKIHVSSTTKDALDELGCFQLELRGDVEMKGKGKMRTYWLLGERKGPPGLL

## Nc1nc2c(ncn2[C@@H]2O[C@@H]3COP(=O)(O)O[C@H]3[C@H]2O)c(=O)[nH]1 [cGMP, guanosine 3′,5′ cyclic monophosphate]
PRKG2
  EC50: 40 to 360 nM

## O=C(O)c1cc2ccccc2c(Cc2c([O-])c(C(=O)O)cc3ccccc23)c1[O-].[Na+].[Na+] [disodium pamoic acid]
[1]
  solubility of counterion: soluble

## CCCCCCCC/C=C\CCCCCCCC(=O)O [oleic acid]
[1]
  solubility of counterion: soluble
[2]
  pKa: 4-5

## CCCCC(CC)COC(=O)CC(C(=O)OCC(CC)CCCC)S(=O)(=O)[O-].[Na+] (centres unmarked) [sodium docusate]
[1]
  solubility of counterion: soluble

## CNP: C-type natriuretic peptide; in the cGMP assay cells were treated with Pro-Gly CNP37 (PGQEHPNARKYKGANKKGLSKGCFGLKLDRIGSMSGLGC; not fully specified (N-terminus, C-terminus); ends and bridges not checked)
[3]
  ERK phosphorylation: decreased ERK phosphorylation
  short stature: corrected the short stature
[4]
  body length: increases in body length
NPR2; cell model of NPR2 haploinsufficiency, exogenous CNP
  rescue of NPR2 signaling: dose-dependent rescue of NPR2 signaling
NPR2; heterozygous NPR2 knockout cells
  CNP dose able to achieve an intracellular cGMP concentration exceeding the EC50 range for PRKG2 activation: > 0.163 nM
NPR2; wild-type cells
  CNP dose able to achieve the same cGMP concentration: 0.040 nM

## DLRVDTKSRAAWARLLQEHPNARKYKGANKKGLSKGCFGLKLDRIGSMSGLGC [CNP-53]
NPR—B
  binding to NPR—B: bind similarly

## GLSKGCFGLKLDRIGSMSGLGC [CNP-22]
NPR—B
  binding to NPR—B: bind similarly

## PGQEHPNARKYKGANKKGLSKGCFGLKLDRIGSMSGLGC (not fully specified (N-terminus, C-terminus); cysteine pairing not given here) [Pro-Gly-CNP37, CNP variant]
NPR2; NPR2+/− rat chondrosarcoma cell model, exogenous peptide (FIG. 3)
  cGMP readout: rescues cGMP readout
